Experimental data taken from PMC11566429 (Genes and Environment, 2024).
“Also recorded” adds a separate entry of the source. Read-outs that look alike come from different tables or passages of the source.

Key:
[1] = test system: TA100, TA1535, TA98, TA1537, and WP2uvrA; assay: Ames test (preincubation method), five standard strains, overall judgement; details: for Ames test result (in words, text): presence and absence of S9 mix; for Ames test: presence and absence of rat liver S9 mix
Protocol: The S9 mix (0.5 mL) consisted of 0.05 mL of the S9 fraction and 0.45 mL of a cofactor solution (Cofactor-1®; Oriental Yeast Co., Ltd.), and contained 8 mM MgCl2, 33 mM KCl, 5 mM glucose-6-phosphate, 4 mM NADPH, 4 mM NADH and 100 mM sodium phosphate (pH 7.4).
Four strains of Salmonella typhimurium, TA100, TA1535, TA98, and TA1537 and one strain of Escherichia coli, WP2uvrA were used.
Ames test was conducted using the preincubation method. […] For the tests carried out in the absence of S9 mix, 0.1 mL of the negative control (vehicle), test chemical solution at various concentrations, or positive control solution was added to a test tube, to which 0.5 mL of 100 mM sodium phosphate buffer (pH 7.4) and 0.1 mL of bacterial culture were added. For the tests carried out in the presence of the S9 mix, the S9 mix was added instead of the phosphate buffer. After mixing, the test tubes were preincubated at 37 °C for 20 min in a shaking water bath. After completion, the treatment mixture was immediately added and mixed with 2 mL of 0.05 mM L-histidine/0.05 mM biotin/0.05 mM L-tryptophan molten top agar and the content was poured onto a plate of minimal-glucose agar medium (Tesmedia®, Oriental Yeast). The plates were incubated at 37 °C for approximately 48 h and the revertant colonies that appeared were counted. The sign of the bacterial background lawn was examined as an indicator of cytotoxicity. In addition, the presence or absence of precipitates from the test chemicals was evaluated.
Multiple tests (dose-finding, main, or confirmatory tests) were conducted. The dose-finding test for almost all the test chemicals was conducted with TA100 in the presence and absence of the S9 mix in a single plate per dose. The main test was conducted in duplicate with the five strains in the presence and absence of the S9 mix. […] Dimethyl sulfoxide (DMSO) was used as a negative control (vehicle).
Mutagenicity was evaluated according to the so-called “two-fold” rule for TA100, TA98, and WP2uvrA, or “three-fold” rule for TA1535 and TA1537 [19]. […] Historical negative control counts were also considered during the evaluation.

WP2uvrA = assay: Ames test, mutagenic activity in WP2uvrA; assay type: cell-based, Escherichia coli; details: maximum mutagenic activity
Description: (§1) The maximum mutagenic activity (rev/mg) was used as an indicator of the magnitude of mutagenicity among those calculated according to the following equation from each representative experiment (main test or confirmatory test) for chemicals that were judged positive: Mutagenic activity (rev/mg) = (number of revertant colonies at each dose—number of revertant colonies for the negative control) / dose (mg).

TA100, TA98 = details: cited from earlier work
[2] = test system: TA100, TA1535, TA98, TA1537, TA97; details: TA100, TA1535, TA98, TA1537, TA97 (± S9) ref 16; cited from earlier work
[3] = test system: TA100, TA1535, TA98, TA1537, WP2uvrA; details: TA100, TA1535, TA98, TA1537, WP2uvrA (± S9) ref 9; cited from earlier work
TA100 = assay: Ames test, mutagenic activity in TA100; assay type: cell-based, Salmonella typhimurium; details: maximum mutagenic activity
Description: as §1

TA98 = assay: Ames test, mutagenic activity in TA98; assay type: cell-based, Salmonella typhimurium; details: maximum mutagenic activity
Description: as §1

TA100, TA98, TA102 = TA100, TA98, TA102 (± S9) ref 7; cited from earlier work
[4] = test system: TA100, TA1535, TA98, TA1537, TA1538; details: presence or absence of S9 mix not clearly indicated ref 7; cited from earlier work
TA1537 = assay type: cell-based, Salmonella typhimurium; details: TA1537 -S9, maximum mutagenic activity
Description: as §1

c1cnc2ccncc2c1 [1,6-Naphthyridine]
Ames test result (in words, text) [1]: not mutagenic

c1cnc2cc[nH]c2c1 [4-Azaindole, 1H-Pyrrolo[3,2-b]pyridine]
Ames test ([1]; indole analogues): + ("mutagenic (< 100 revertants/mg)" in Ames test)
Ames test result (in words, text) [1]: mutagenic in the absence of S9 mix with TA1537

c1ccc2[nH]ncc2c1 [Indazole]
Tester strains showing positive (mutagenic activity in rev/mg) (WP2uvrA; WP2uvrA +S9): 38 rev/mg
Tester strains showing positive (mutagenic activity in rev/mg) (WP2uvrA; WP2uvrA -S9): 40 rev/mg
Ames test result (TA100, TA98; TA100, TA98 (-S9) ref 14): Non-mutagenic
Ames test ([1]; indole analogues): + ("mutagenic (< 100 revertants/mg)" in Ames test)
Ames test result (in words, text) [1]: mutagenic in the presence and absence of S9 mix with WP2uvrA

c1cc2ccncc2cn1 [2,7-Naphthyridine]
Ames test result (in words, text) [1]: non-mutagenic

c1ccc2cnccc2c1 [Isoquinoline]
Ames test result (TA100, TA98; TA100, TA98 (± S9) ref 10): Non-mutagenic
Ames test result (in words, text) [1]: non-mutagenic

c1ccc2[nH]cnc2c1 [Benzimidazole]
Ames test result (TA100, TA98; TA100, TA98 (-S9) ref 14): Non-mutagenic
Ames test result [2]: Non-mutagenic
Ames test result (in words, text) [1]: not mutagenic

c1ccc2cnncc2c1 [Phthalazine]
Ames test result (TA100, TA98; TA100, TA98 (± S9) ref 11): Non-mutagenic
Ames test result (in words, text) [1]: non-mutagenic

c1ccc2ncccc2c1 [Quinoline]
Ames test result [3]: Mutagenic (+ S9) in TA100, TA98, WP2uvrA
Ames test result (in words, text) [1]: only mutagenic in TA100; also recorded: mutagenic only in the presence of the S9 mix
Ames test ([1]; quinoline analogues): +++ ("mutagenic (>1000 revertants/mg)" in Ames test)

c1cnc2ncccc2c1 [1,8-Naphthyridine]
Tester strains showing positive (mutagenic activity in rev/mg) (TA100; TA100 +S9): TA100 +S9 (170) rev/mg
Tester strains showing positive (mutagenic activity in rev/mg) (TA100; TA100 +S9, listed as 1,8-naphthyridine): 170 rev/mg
Ames test result (in words, text) [1]: only mutagenic in TA100; also recorded: mutagenic only in the presence of the S9 mix
Ames test ([1]; quinoline analogues): ++ ("mutagenic (100-1000 rev/mg)" in Ames test)

c1cnc2cccnc2c1 [1,5-Naphthyridine]
Tester strains showing positive (mutagenic activity in rev/mg) (TA100; TA100 +S9): TA100 +S9 (419) rev/mg
Tester strains showing positive (mutagenic activity in rev/mg) (TA100; TA100 +S9, listed as 1,5-naphthyridine): 419 rev/mg
Ames test result (in words, text) [1]: only mutagenic in TA100; also recorded: mutagenic only in the presence of the S9 mix
Ames test ([1]; quinoline analogues): ++ ("mutagenic (100-1000 rev/mg)" in Ames test)

c1cnc2cnccc2c1 [1,7-Naphthyridine]
Tester strains showing positive (mutagenic activity in rev/mg) (TA100; TA100 +S9): 255 rev/mg
Tester strains showing positive (mutagenic activity in rev/mg) (TA100; TA100 -S9): 40 rev/mg
Tester strains showing positive (mutagenic activity in rev/mg) (TA98; TA98 +S9): 24 rev/mg
Tester strains showing positive (mutagenic activity in rev/mg) (TA98; TA98 -S9): 12 rev/mg
Ames test result (in words, text) [1]: mutagenic in both TA100 and TA98
Ames test result (in words, text) ([1]; listed as 1,7-naphthyridine): mutagenic both in the presence and absence of the S9 mix
Ames test ([1]; quinoline analogues): ++ ("mutagenic (100-1000 rev/mg)" in Ames test)

c1ccc2nccnc2c1 [Quinoxaline]
Ames test result (TA100, TA98, TA102): Mutagenic (+ S9) in TA98
Ames test result [4]: Non-mutagenic
Ames test result (in words, text) [1]: non-mutagenic

c1ncc2[nH]ccc2n1 [5H-Pyrrolo[3,2-d]pyrimidine]
Ames test result (in words, text) [1]: non-mutagenic

c1cc2cnccc2cn1 [2,6-Naphthyridine]
Ames test result (in words, text) [1]: non-mutagenic

c1ccc2nnccc2c1 [Cinnoline]
Tester strains showing positive (mutagenic activity in rev/mg) (TA1537): TA1537 -S9 (13) rev/mg
Tester strains showing positive (mutagenic activity in rev/mg) (TA1537; listed as cinnoline): 13 rev/mg
Ames test result (in words, text) [1]: mutagenic in TA1537; also recorded: mutagenic only in the absence of the S9 mix
Ames test result (in words, text) ([1]; listed as cinnoline): mutagenic in the absence of S9 mix with TA1537
Ames test ([1]; quinoline analogues): + ("mutagenic (< 100 revertants/mg)" in Ames test)

c1cnc2[nH]ncc2c1 [Pyrazolo[3,4-b]pyridine]
Ames test result (in words, text) [1]: non-mutagenic

c1ccc2ncncc2c1 [Quinazoline]
Ames test result (in words, text) [1]: non-mutagenic
